Laboratory results reported in PubChem BioAssay AID248 (DTP/NCI, 2004).
Several values for one entry are separate records, joined by “and”; a condition that tells them apart may be missing. Equal values may be shown once. Toxic doses and inconclusive results are not listed. No stated cut-off is given here; in the data, active means T/C of 150% or more; inactive means T/C below 125%.

Tested on: L1210 leukemia ip in BDF1 mice, survival T/C
Experiment: NCI In Vivo Anticancer Drug Screen. Data for tumor model L1210 Leukemia (intraperitoneal) in B6D2F1 (BDF1) mice
Conditions: endpoint: mean survival time, higher = longer survival
Summary of the method: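 Survival endpoint. Drug-treated group vs vehicle group, expressed as T divided by C. Tumor passaged by transplantation.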

[1] = dose: 75.0 mg/kg/injection, schedule: Q01DX001 (ip), vehicle: saline
[2] = dose: 150.0 mg/kg/injection, schedule: Q01DX001 (ip), vehicle: saline
[3] = dose: 100.0 mg/kg/injection, schedule: Q01DX009 (ip), vehicle: saline with Tween-80
[4] = dose: 200.0 mg/kg/injection, schedule: Q01DX009 (ip), vehicle: saline with Tween-80
[5] = dose: 100.0 mg/kg/injection, schedule: Q01DX009 (ip), vehicle: Klucel (hydroxypropylcellulose) (HPC)
[6] = dose: 200.0 mg/kg/injection, schedule: Q01DX009 (ip), vehicle: Klucel (hydroxypropylcellulose) (HPC)
[7] = dose: 400.0 mg/kg/injection, schedule: Q01DX009 (ip), vehicle: Klucel (hydroxypropylcellulose) (HPC)
[8] = dose: 100.0 mg/kg/injection, schedule: Q01DX001 (ip), vehicle: Klucel (hydroxypropylcellulose) (HPC)
[9] = dose: 200.0 mg/kg/injection, schedule: Q01DX001 (ip), vehicle: Klucel (hydroxypropylcellulose) (HPC)
[10] = dose: 400.0 mg/kg/injection, schedule: Q01DX001 (ip), vehicle: Klucel (hydroxypropylcellulose) (HPC)
[11] = dose: 100.0 mg/kg/injection, schedule: Q01DX001 (ip), vehicle: saline
[12] = dose: 200.0 mg/kg/injection, schedule: Q01DX001 (ip), vehicle: saline
[13] = dose: 400.0 mg/kg/injection, schedule: Q01DX001 (ip), vehicle: saline
[14] = dose: 100.0 mg/kg/injection, schedule: Q04DX003 (ip), vehicle: Klucel (hydroxypropylcellulose) (HPC)
[15] = dose: 200.0 mg/kg/injection, schedule: Q04DX003 (ip), vehicle: Klucel (hydroxypropylcellulose) (HPC)
[16] = dose: 400.0 mg/kg/injection, schedule: Q04DX003 (ip), vehicle: Klucel (hydroxypropylcellulose) (HPC)
[17] = dose: 100.0 mg/kg/injection, schedule: Q04DX002 (ip), vehicle: Klucel (hydroxypropylcellulose) (HPC)
[18] = dose: 200.0 mg/kg/injection, schedule: Q04DX002 (ip), vehicle: Klucel (hydroxypropylcellulose) (HPC)

Measured: T/C

C=CCP(C)(=O)CC=C
inactive: dose: 100.0 mg/kg/injection, schedule: Q04DX002 (ip), vehicle: saline 102 % of control | dose: 200.0 mg/kg/injection, schedule: Q04DX002 (ip), vehicle: saline 108 % of control | dose: 400.0 mg/kg/injection, schedule: Q04DX002 (ip), vehicle: saline 94 % of control

O=[N+]([O-])c1ccccc1N=Nc1c(O)[nH]c2c(Cl)ccc(Cl)c12
inactive: [1] 89 % of control | [2] 93 % of control

COc1cc(/C=N\NC(=O)CNC(=O)Nc2cccc(Cl)c2)ccc1O
inactive: [3] 90 % of control | [4] 87 % of control

Cc1ccc(CNC(=O)NC(C)(C)C)cc1
inactive: [5] 93 % of control | [6] 101 % of control | [7] 90 % of control

O=S(=O)(c1ccccc1)c1cccs1
inactive: dose: 50.0 mg/kg/injection, schedule: Q01DX009 (ip), vehicle: saline with Tween-80 101 % of control | [3] 96 % of control | [4] 105 % of control

Nc1n[n+](=O)c2ccccc2n1O
inactive: dose: 1.17 mg/kg/injection, schedule: Q01DX001 (ip), vehicle: other 95 % of control | dose: 2.34 mg/kg/injection, schedule: Q01DX001 (ip), vehicle: other 101 % of control | dose: 4.69 mg/kg/injection, schedule: Q01DX001 (ip), vehicle: other 102 % of control

CCCCCCCCCCCCCCBr
inactive: dose: 37.5 mg/kg/injection, schedule: Q01DX Z (ip), vehicle: carboxymethylcellulose (CMC) 100 % of control | dose: 75.0 mg/kg/injection, schedule: Q01DX Z (ip), vehicle: carboxymethylcellulose (CMC) 100 % of control | [8] 107 % of control | dose: 150.0 mg/kg/injection, schedule: Q01DX Z (ip), vehicle: carboxymethylcellulose (CMC) 100 % of control | [9] 98 % of control | dose: 300.0 mg/kg/injection, schedule: Q01DX Z (ip), vehicle: carboxymethylcellulose (CMC) 91 % of control | [10] 94 % of control

O=C1NNCc2c1sc1ccccc21
inactive: [11] 98 % of control | [12] 98 % of control | [13] 102 % of control

O=S(=O)(/N=C1\C=CC(Br)=C\C1=N/S(=O)(=O)c1ccccc1)c1ccccc1
inactive: [8] 89 % of control | [9] 106 % of control | [10] 101 % of control

CC(=O)Nc1cccc(OCCOc2cccc([N+](=O)[O-])c2)c1
inactive: [11] 100 % of control | [12] 101 % of control | [13] 101 % of control

O=[N+]([O-])c1ccc(C=Nc2ccccc2S)s1
inactive: [14] 100 % of control | [15] 96 % of control | [16] 94 % of control

CSc1nncc(-c2cnnc(SC)n2)n1
inactive: [17] 108 % of control | [18] 94 % of control

CCCCOC(=O)C1OC1(C)c1ccc(C)cc1 (stereo unspecified)
inactive: [3] 103 % of control | [4] 113 % of control | dose: 400.0 mg/kg/injection, schedule: Q01DX009 (ip), vehicle: saline with Tween-80 100 % of control

Cc1nnc(NN)nc1C
inactive: dose: 6.25 mg/kg/injection, schedule: Q01DX009 (ip), vehicle: saline with Tween-80 101 % of control | dose: 6.25 mg/kg/injection, schedule: Q04DX003 (ip), vehicle: saline with Tween-80 100 % of control | dose: 12.5 mg/kg/injection, schedule: Q01DX001 (ip), vehicle: saline with Tween-80 112 % of control | dose: 12.5 mg/kg/injection, schedule: Q01DX009 (ip), vehicle: saline with Tween-80 103 % of control | dose: 12.5 mg/kg/injection, schedule: Q04DX003 (ip), vehicle: saline with Tween-80 103 % of control | dose: 25.0 mg/kg/injection, schedule: Q01DX001 (ip), vehicle: saline with Tween-80 100 % of control | dose: 25.0 mg/kg/injection, schedule: Q04DX003 (ip), vehicle: saline with Tween-80 95 % of control

O=C(c1ccncc1)n1cc2c(n1)CCCC2
inactive: [14] 87 % of control | [15] 92 % of control | [16] 95 % of control

CCCCN(CCCC)CC(O)c1ccnc2cc3c(cc12)OCO3 (stereo unspecified)
inactive: dose: 25.0 mg/kg/injection, schedule: Q01DX009 (ip), vehicle: other 102 % of control | dose: 50.0 mg/kg/injection, schedule: Q01DX009 (ip), vehicle: other 110 % of control | [11] 97 % of control | dose: 100.0 mg/kg/injection, schedule: Q01DX009 (ip), vehicle: other 111 % of control

O=c1cc(Nc2ccc(Cl)cc2)[nH]c(=O)[nH]1
inactive: dose: 100.0 mg/kg/injection, schedule: Q01DX001 (ip), vehicle: gum acacia 101 % of control | dose: 400.0 mg/kg/injection, schedule: Q01DX001 (ip), vehicle: gum acacia 101 % of control

O=C(O)C(Nc1cccc2ccccc12)c1ccccc1 (stereo unspecified)
inactive: [17] 97 % of control | [18] 111 % of control

O=C(Nc1cccc(O)c1)Nc1cc([N+](=O)[O-])ccc1F
inactive: [8] 91 % of control | [5] 100 % of control and 90 % of control | [14] 93 % of control | [9] 98 % of control | [6] 94 % of control and 95 % of control | [15] 102 % of control | [10] 94 % of control | [7] 94 % of control and 100 % of control | [16] 95 % of control

CCOC(=O)Nc1ccc2c(c1)/C(=N\NC(=S)NC)c1ccccc1-2
inactive: dose: 75.0 mg/kg/injection, schedule: Q01DX001 (ip), vehicle: carboxymethylcellulose (CMC) 90 % of control | dose: 150.0 mg/kg/injection, schedule: Q01DX001 (ip), vehicle: carboxymethylcellulose (CMC) 92 % of control | dose: 300.0 mg/kg/injection, schedule: Q01DX001 (ip), vehicle: carboxymethylcellulose (CMC) 88 % of control

CC(C)=CCC(=O)NC(=O)NS(=O)(=O)c1ccc(C)cc1
inactive: dose: 10.2 mg/kg/injection, schedule: Q01DX009 (ip), vehicle: Klucel (hydroxypropylcellulose) (HPC) 100 % of control | [5] 96 % of control | [14] 100 % of control | [6] 100 % of control | [15] 102 % of control | [16] 101 % of control

CC(C)(C)NC(=O)CCC1C(NC(=O)C(C)(C)C)C2(Cl)C(Cl)=C(Cl)C1(Cl)C2(Cl)Cl (stereo unspecified)
inactive: [5] 90 % of control | [14] 92 % of control | [6] 90 % of control | [15] 92 % of control | [7] 90 % of control | [16] 93 % of control

CCSC1C(O)C(C(O)CO)OC1n1cnc2c(N)ncnc21 (stereo unspecified)
inactive: dose: 100.0 mg/kg/injection, schedule: Q01DX005 (ip), vehicle: saline 98 % of control and 105 % of control and 102 % of control | dose: 200.0 mg/kg/injection, schedule: Q01DX005 (ip), vehicle: saline 98 % of control and 100 % of control and 96 % of control | dose: 400.0 mg/kg/injection, schedule: Q01DX005 (ip), vehicle: saline 104 % of control

CC(=O)OC1CCC2(C)C(=CCC3C2CCC2(C)C3CCC2(O)C(C)=O)C1 (stereo unspecified)
inactive: [8] 101 % of control | [9] 97 % of control | [10] 98 % of control

NC1=NCN(c2ccc(OCCOc3ccc([N+](=O)[O-])cc3)cc2)C(N)=N1
inactive: [8] 107 % of control | [9] 102 % of control | [10] 97 % of control

COc1ccccc1OCC(=O)N1CCCC1
inactive: [17] 98 % of control | [18] 98 % of control | dose: 400.0 mg/kg/injection, schedule: Q04DX002 (ip), vehicle: Klucel (hydroxypropylcellulose) (HPC) 117 % of control

O=C(O)c1ccc(CNCc2ccccc2)cc1
inactive: [1] 102 % of control | [2] 96 % of control

CC(C)c1ccc(/C(=N\NC(N)=S)C2CC2)cc1
inactive: dose: 1.0 mg/kg/injection, schedule: Q01DX Z (ip), vehicle: methylcellulose (MC) 93 % of control | dose: 2.0 mg/kg/injection, schedule: Q01DX Z (ip), vehicle: methylcellulose (MC) 91 % of control | dose: 5.0 mg/kg/injection, schedule: Q01DX Z (ip), vehicle: methylcellulose (MC) 94 % of control | dose: 10.0 mg/kg/injection, schedule: Q01DX Z (ip), vehicle: methylcellulose (MC) 102 % of control

ClCCCCC(Cl)(Cl)Cl
inactive: dose: 75.0 mg/kg/injection, schedule: Q01DX009 (ip), vehicle: saline 93 % of control | dose: 100.0 mg/kg/injection, schedule: Q04DX003 (ip), vehicle: saline 102 % of control | dose: 150.0 mg/kg/injection, schedule: Q01DX009 (ip), vehicle: saline 91 % of control | dose: 200.0 mg/kg/injection, schedule: Q04DX003 (ip), vehicle: saline 98 % of control | dose: 300.0 mg/kg/injection, schedule: Q01DX009 (ip), vehicle: saline 90 % of control | dose: 400.0 mg/kg/injection, schedule: Q04DX003 (ip), vehicle: saline 108 % of control
